Laboratory results reported in patent US10138251B2, “Spiro[3H-indole-3,2′-pyrrolidin]-2(1H)-one compounds and derivatives as MDM2-P53 inhibitors” (Boehringer Ingelheim International GmbH, priority 2014, dated 2018).

These compounds were tested against T1, MDM2 (Homo sapiens, UniProt Q00987) (assay: Mdm2-p53 Inhibition AlphaScreen). Conditions: 20 nM GST-MDM2 protein (aa 23-117), 20 nM biotinylated p53 wt peptide.
T1 construct: 20 nM GST-MDM2 protein (aa 23-117)
Format: binding
Experimental: Mdm2-p53 Inhibition AlphaScreen
15 μL of compound in 20% DMSO (serial pre-dilutions of compound are done in 100% DMSO) is pipetted to the wells of a white OptiPlate-96 (PerkinElmer). A mix consisting of 20 nM GST-MDM2 protein (aa 23-117) and 20 nM biotinylated p53 wt peptide (encompassing aa 16-27 of wt human p53, amino acid sequence QETFSDLWKLLP-Ttds-Lys-Biotin, molecular weight 2132.56 g/mol) is prepared in assay buffer (50 mM Tris/HCl pH 7.2; 120 mM NaCl; 0.1% bovine serum albumin (BSA); 5 mM dithiothreitol (DTT); 1 mM ethylenediaminetetraacetic acid (EDTA); 0.01% Tween 20). 30 μL of the mix is added to the compound dilutions and incubated for 15 min at rt while gently shaking the plate at 300 rounds per minute (rpm). Subsequently, 15 μL of premixed AlphaLISA Glutathione Acceptor Beads and AlphaScreen Streptavidin Donor Beads from PerkinElmer (in assay buffer at a concentration of 10 μg/mL each) are added and the samples are incubated for 30 min at rt in the dark (shaking 300 rpm). Afterwards, the signal is measured in a PerkinElmer Envision HTS Multilabel Reader using the AlphaScreen protocol from PerkinElmer.
Each plate contains negative controls where biotinylated p53-peptide and GST-MDM2 are left out and replaced by assay buffer. Negative control values are entered as low basis value when using the software GraphPad Prism for calculations. Furthermore, a positive control (5% DMSO instead of test compound; with protein/peptide mix) is pipetted. Determination of IC50 values are carried out using GraphPad Prism 3.03 software (or updates thereof).

T1 sequence (Q00987 23-117): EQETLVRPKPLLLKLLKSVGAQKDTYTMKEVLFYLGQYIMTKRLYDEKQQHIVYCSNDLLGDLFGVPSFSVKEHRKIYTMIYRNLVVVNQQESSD

Row | Structure (SMILES) | IC50 [nM]
1 | CCOC(=O)c1ccc([C@H]2C[C@H]3[C@@H](N2)[C@H](c2cccc(Cl)c2F)[C@]2(C(=O)Nc4cc(Cl)c(F)cc42)N3CC2CC2)cc1 [Compound I-13] | 623
2 | O=C1Nc2nc(Cl)ccc2[C@@]12[C@@H](c1cccc(Cl)c1F)[C@@H]1NCC[C@@H]1N2CC1CC1 [Compound I-23] | 871
3 | O=C(O)c1ccc([C@H]2C[C@H]3[C@@H](N2)[C@H](c2cccc(Cl)c2)[C@]2(C(=O)Nc4cc(Cl)ccc42)N3CC2CC2)cc1 [Compound I-24] | 23
4 | O=C(O)c1ccc([C@@H]2C[C@H]3[C@@H](N2)[C@H](c2cccc(Cl)c2)[C@]2(C(=O)Nc4cc(Cl)ccc42)N3CC2CC2)cc1 [Compound I-25] | 49
5 | COc1cc(C(=O)O)ccc1[C@@H]1C[C@H]2[C@@H](N1)[C@H](c1cccc(Cl)c1)[C@]1(C(=O)Nc3cc(Cl)ccc31)N2CC1CC1 [Compound I-26] | 173
6 | O=C(O)c1cccc([C@H]2C[C@H]3[C@@H](N2)[C@H](c2cccc(Cl)c2)[C@]2(C(=O)Nc4cc(Cl)ccc42)N3CC2CC2)c1 [Compound I-27] | 32
7 | O=C(O)c1cccc([C@@H]2C[C@H]3[C@@H](N2)[C@H](c2cccc(Cl)c2)[C@]2(C(=O)Nc4cc(Cl)ccc42)N3CC2CC2)c1 [Compound I-28] | 249
8 | O=C(O)c1ccc([C@H]2C[C@H]3[C@@H](N2)[C@H](c2cccc(Cl)c2F)[C@]2(C(=O)Nc4cc(Cl)ccc42)N3CC2CC2)cc1 [Compound I-29] | 5
9 | O=C(O)c1ccc([C@@H]2C[C@H]3[C@@H](N2)[C@H](c2cccc(Cl)c2F)[C@]2(C(=O)Nc4cc(Cl)ccc42)N3CC2CC2)cc1 [Compound I-30] | 41
10 | COc1cc([C@@H]2C[C@@H]3[C@H](N2)[C@@H](c2cccc(Cl)c2F)[C@@]2(C(=O)Nc4cc(Cl)ccc42)N3CC2CC2)ccc1C(=O)O [Compound I-32] | 373
11 | O=C(O)c1ccc([C@H]2C[C@H]3[C@@H](N2)[C@H](c2cccc(Cl)c2F)[C@]2(C(=O)Nc4cc(Cl)c(F)cc42)N3CC2CC2)cc1 [Compound I-35] | 9
12 | CCOc1cccc(CN2[C@H]3C[C@H](c4ccc(C(=O)O)cc4)N[C@H]3[C@H](c3cccc(Cl)c3F)[C@]23C(=O)Nc2cc(Cl)ccc23)c1 [Compound I-36] | 4
13 | CCOc1cccc(CN2[C@H]3C[C@@H](c4ccc(C(=O)O)cc4)N[C@H]3[C@H](c3cccc(Cl)c3F)[C@]23C(=O)Nc2cc(Cl)ccc23)c1 [Compound I-37] | 5
14 | CCOc1cccc(CN2[C@H]3C[C@H](c4ccc(C(=O)O)cc4)N[C@H]3[C@H](c3cccc(Cl)c3F)[C@]23C(=O)Nc2cc(Cl)ccc23)c1 [Compound I-38] | 2
15 | O=C(O)c1ccc([C@H]2CC[C@H]3[C@@H](N2)[C@H](c2cccc(Cl)c2F)[C@]2(C(=O)Nc4cc(Cl)ccc42)N3CC2CC2)cc1 [Compound I-39] | 124
16 | O=C(O)c1ccc([C@@H]2CC[C@H]3[C@@H](N2)[C@H](c2cccc(Cl)c2F)[C@]2(C(=O)Nc4cc(Cl)ccc42)N3CC2CC2)cc1 [Compound I-40] | 133
17 | O=C(O)C[C@H]1C[C@H]2[C@@H](N1)[C@H](c1cccc(Cl)c1)[C@]1(C(=O)Nc3cc(Cl)ccc31)N2CC1CC1 [Compound I-46] | 280
18 | O=C(O)C[C@@H]1C[C@H]2[C@@H](N1)[C@H](c1cccc(Cl)c1)[C@]1(C(=O)Nc3cc(Cl)ccc31)N2CC1CC1 [Compound I-47] | 280
19 | O=C(O)CN1CC[C@H]2[C@@H]1[C@H](c1cccc(Cl)c1)[C@]1(C(=O)Nc3cc(Cl)ccc31)N2CC1CC1 [Compound I-60] | 85
20 | O=C(O)C1CCC(CN2CC[C@H]3[C@@H]2[C@H](c2cccc(Cl)c2F)[C@]2(C(=O)Nc4cc(Cl)ccc42)N3CC2CC2)CC1 (stereo partly shown) [Compound I-61] | 274

Row | Structure (SMILES) | IC50 [nM]
21 | CCOc1cccc(CN2[C@H]3CCN(CC4CCC(C(=O)O)CC4)[C@H]3[C@H](c3cccc(Cl)c3F)[C@]23C(=O)Nc2cc(Cl)ccc23)c1 (stereo partly shown) [Compound I-62] | 24
22 | O=C(O)C1CC1CN1CC[C@H]2[C@@H]1[C@H](c1cccc(Cl)c1F)[C@]1(C(=O)Nc3cc(Cl)ccc31)N2CC1CC1 (stereo partly shown) [Compound I-63] | 130
23 | CCOc1cccc(CN2[C@H]3CCN(CC4CC4C(=O)O)[C@H]3[C@H](c3cccc(Cl)c3F)[C@]23C(=O)Nc2cc(Cl)ccc23)c1 (stereo partly shown) [Compound I-64] | 6
24 | CCOc1cccc(CN2[C@H]3CCN(CC4CC4C(=O)O)[C@H]3[C@H](c3cccc(Cl)c3F)[C@]23C(=O)Nc2cc(Cl)ccc23)c1 (stereo partly shown) [Compound I-65] | 3
25 | CCOc1cccc(CN2[C@@H]3CCN(CC4CC4C(=O)O)[C@@H]3[C@@H](c3cccc(Cl)c3F)[C@@]23C(=O)Nc2cc(Cl)ccc23)c1 (stereo partly shown) [Compound I-66] | 209
26 | O=C(O)CN1CC[C@H]2[C@@H]1[C@H](c1cccc(Cl)c1F)[C@]1(C(=O)Nc3cc(Cl)ccc31)N2CC1CC1 [Compound I-67] | 40
27 | O=C(O)c1ccc(CN2CC[C@H]3[C@@H]2[C@H](c2cccc(Cl)c2F)[C@]2(C(=O)Nc4cc(Cl)ccc42)N3CC2CC2)cc1 [Compound I-68] | 91
28 | CCOc1cccc(CN2[C@H]3CCN(CC(=O)O)[C@H]3[C@H](c3cccc(Cl)c3F)[C@]23C(=O)Nc2cc(Cl)ccc23)c1 [Compound I-69] | 3
29 | CCOc1cccc(CN2[C@H]3CCN(CC(=O)O)[C@H]3[C@H](c3cccc(Cl)c3F)[C@]23C(=O)Nc2cc(Cl)ccc23)c1 [Compound I-70] | 2
30 | CCOc1cccc(CN2[C@@H]3CCN(CC(=O)O)[C@@H]3[C@@H](c3cccc(Cl)c3F)[C@@]23C(=O)Nc2cc(Cl)ccc23)c1 [Compound I-71] | 722
31 | O=C(O)c1[nH]ncc1CN1CC[C@H]2[C@@H]1[C@H](c1cccc(Cl)c1F)[C@]1(C(=O)Nc3cc(Cl)ccc31)N2CC1CC1 [Compound I-72] | 1300
32 | CCOc1cccc(CN2[C@H]3CCN(Cc4cn[nH]c4C(=O)O)[C@H]3[C@H](c3cccc(Cl)c3F)[C@]23C(=O)Nc2cc(Cl)ccc23)c1 [Compound I-73] | 29
33 | CCOc1cccc(CN2[C@H]3CCN(CC4CC4C(N)=O)[C@H]3[C@H](c3cccc(Cl)c3F)[C@]23C(=O)Nc2cc(Cl)ccc23)c1 (stereo partly shown) [Compound I-74] | 21
34 | NC(=O)c1ccc([C@H]2C[C@H]3[C@@H](N2)[C@H](c2cccc(Cl)c2F)[C@]2(C(=O)Nc4cc(Cl)ccc42)N3CC2CC2)cc1 [Compound I-75] | 16
35 | CC(=O)N1CC[C@H]2C1[C@H](c1cccc(Cl)c1F)[C@]1(C(=O)Nc3cc(Cl)ccc31)N2CC1CC1 (stereo partly shown) [Compound I-76] | 212
36 | COCC(=O)N1CC[C@H]2C1[C@H](c1cccc(Cl)c1F)[C@]1(C(=O)Nc3cc(Cl)ccc31)N2CC1CC1 (stereo partly shown) [Compound I-77] | 119
37 | CN(C)CC(=O)N1CC[C@H]2C1[C@H](c1cccc(Cl)c1F)[C@]1(C(=O)Nc3cc(Cl)ccc31)N2CC1CC1 (stereo partly shown) [Compound I-78] | 381
38 | O=C(Cc1cccnc1)N1CC[C@H]2C1[C@H](c1cccc(Cl)c1F)[C@]1(C(=O)Nc3cc(Cl)ccc31)N2CC1CC1 (stereo partly shown) [Compound I-79] | 386
39 | O=C(c1ncccn1)N1CC[C@H]2C1[C@H](c1cccc(Cl)c1F)[C@]1(C(=O)Nc3cc(Cl)ccc31)N2CC1CC1 (stereo partly shown) [Compound I-80] | 596
40 | CC(=O)Nc1ccc(C(=O)N2CC[C@H]3C2[C@H](c2cccc(Cl)c2F)[C@]2(C(=O)Nc4cc(Cl)ccc42)N3CC2CC2)c(C)c1 (stereo partly shown) [Compound I-81] | 444
